Measured values published in patent US20070225278A1, “Methods for treating cognitive and other disorders” (priority 2006, published 2007).

Tests used:
[1] = tested on: male Long-Evans rats; test: Novel object recognition (NOR); format: in vivo, rat
Experimental: Animals: Adult male Sprague-Dawley rats (Charles River, Wilmington, Mass.) weighing 280-350 g at the time of surgery were used for all microdialysis experiments. Adult male Long-Evans rats (Charles River, Wilmington, Mass.) weighing 180-220 g were used for NOR studies. Rats were housed individually for recognition memory studies. All animals had free access to food and water and were group housed in the AAALAC-accredited facility that was maintained on a 12 h light dark cycle (lights on at 0600 h) for at least 1 week prior to surgery or behavioral testing. […]
Novel object recognition (NOR) training and testing was performed in a circular field (diameter ˜70 cm, 30 cm high) constructed out of plastic and containing bedding. […] Animal performance was tracked by video and monitored by an experimenter located outside of the testing room. […]
The visual recognition task was divided into 3 sessions—habituation, a sample trial and a choice trial. […] The amount of time exploring the objects was recorded for the entire trial. […]
The effect of treatment on object exploration during the sample trial was examined using a one-way ANOVA on total contact time followed by Fisher's LSD group mean pairwise comparisons. The amount of time exploring the novel and familiar objects across treatment groups was analyzed using a repeated measures ANOVA followed by Fisher's LSD post hoc comparisons. […]

[2] = tested on: male Sprague Dawley CD rats; test: Reversal of MK-801 induced deficits in PPI; settings: 3-30 mg/kg IP, MK-801 0.15 mg/kg SC
[3] = tested on: male Sprague Dawley CD rats; test: Baseline PPI, compound administered alone; format: in vivo, rat; settings: dose range that attenuates d-amphetamine and DOI deficits
Excerpt: Inter-trial intervals averaged 15 s.

SMILES: c1cc2c3c(c1)[C@H]1CCC[C@H]1N3CCNC2 [Compound 1]
- effect on exploration during the sample trial ([1]; 1 mg/kg orally): No significant effect
- exploration of novel vs familiar object in choice trial (retention) ([1]; 1 mg/kg orally 60 minutes prior to sample trial, 48 hour retention interval): significantly greater time spent exploring the novel than the familiar object
- reduction of the increase in startle produced by MK-801 ([2]; all doses tested): did significantly reduce
- attenuation of MK-801 induced disruption in gating (PPI) ([2]; any dose tested): did not show an ability to significantly attenuate
- effect on baseline PPI when administered alone [3]: no effect
